Measured values published in the NIST ThermoML archive (doi:10.1016/j.fluid.2004.09.013).
± gives the expanded uncertainty stated by the source.

Conditions: for mass density: Fluid (supercritical or subcritical phases), Vibrating tube method

C/C=C\C [(Z)-2-butene]
Conditions | Critical density [kg/m3] | mass density [kg/m3]
453.24 K, 29992 kPa | – | 504.64 ± 1.2
453.24 K, 34997 kPa | – | 516.94 ± 1.3
453.24 K, 39986 kPa | – | 527.56 ± 1.4
458.24 K, 5019 kPa | – | 150.54 ± 0.7
458.24 K, 9982 kPa | – | 395.53 ± 0.93
458.24 K, 14988 kPa | – | 439.55 ± 0.99
458.24 K, 20006 kPa | – | 465.63 ± 1.1
458.24 K, 24985 kPa | – | 484.52 ± 1.2
458.24 K, 30000 kPa | – | 499.71 ± 1.2
458.24 K, 34991 kPa | – | 512.34 ± 1.3
458.24 K, 39989 kPa | – | 523.28 ± 1.4
463.23 K, 39987 kPa | – | 519.02 ± 1.4
463.24 K, 5019 kPa | – | 137.08 ± 0.68
463.24 K, 9986 kPa | – | 383.54 ± 0.91
463.24 K, 14987 kPa | – | 431.68 ± 0.97
463.24 K, 20001 kPa | – | 459.21 ± 1.1
463.24 K, 24986 kPa | – | 479.01 ± 1.1
463.24 K, 29986 kPa | – | 494.71 ± 1.2
463.24 K, 34995 kPa | – | 507.77 ± 1.3
468.24 K, 5018 kPa | – | 127.59 ± 0.66
468.24 K, 10000 kPa | – | 371.16 ± 0.89
468.24 K, 14996 kPa | – | 423.86 ± 0.96
468.24 K, 20007 kPa | – | 452.9 ± 1.1
468.24 K, 24993 kPa | – | 473.52 ± 1.1
468.24 K, 29993 kPa | – | 489.76 ± 1.2
468.24 K, 34996 kPa | – | 503.22 ± 1.3
468.24 K, 40007 kPa | – | 514.77 ± 1.4
473.23 K, 5018 kPa | – | 120.28 ± 0.64
473.24 K, 9991 kPa | – | 357.88 ± 0.87
473.24 K, 14997 kPa | – | 415.28 ± 0.94
473.24 K, 20004 kPa | – | 446.42 ± 1
473.24 K, 25004 kPa | – | 467.94 ± 1.1
473.24 K, 30000 kPa | – | 484.78 ± 1.2
473.24 K, 34996 kPa | – | 498.62 ± 1.3
473.24 K, 39991 kPa | – | 510.47 ± 1.4
478.23 K, 14995 kPa | – | 407.2 ± 0.92
478.23 K, 19994 kPa | – | 439.87 ± 1
478.23 K, 25001 kPa | – | 462.4 ± 1.1
478.23 K, 35013 kPa | – | 494.09 ± 1.3
478.23 K, 39992 kPa | – | 506.21 ± 1.4
478.24 K, 5015 kPa | – | 114.19 ± 0.61
478.24 K, 9987 kPa | – | 344.22 ± 0.84
478.24 K, 29999 kPa | – | 479.77 ± 1.2
483.23 K, 5018 kPa | – | 109.23 ± 0.59
483.23 K, 19992 kPa | – | 433.21 ± 1
483.24 K, 10014 kPa | – | 330.62 ± 0.82
483.24 K, 14991 kPa | – | 398.7 ± 0.91
483.24 K, 25005 kPa | – | 456.72 ± 1.1
483.24 K, 29995 kPa | – | 474.68 ± 1.2
483.24 K, 34999 kPa | – | 489.39 ± 1.3
483.24 K, 39992 kPa | – | 501.87 ± 1.4
488.23 K, 5019 kPa | – | 104.99 ± 0.56
488.23 K, 19987 kPa | – | 426.61 ± 1
488.23 K, 25005 kPa | – | 451.11 ± 1.1
488.23 K, 29989 kPa | – | 469.66 ± 1.2
488.23 K, 34990 kPa | – | 484.81 ± 1.3
488.23 K, 39992 kPa | – | 497.63 ± 1.4
488.24 K, 10014 kPa | – | 316.46 ± 0.79
488.24 K, 15002 kPa | – | 390.34 ± 0.89
493.23 K, 5016 kPa | – | 101.23 ± 0.54
493.23 K, 9986 kPa | – | 301.65 ± 0.76
493.23 K, 14996 kPa | – | 381.74 ± 0.88
493.23 K, 19990 kPa | – | 420.02 ± 0.98
493.23 K, 24987 kPa | – | 445.42 ± 1.1
493.23 K, 29998 kPa | – | 464.71 ± 1.2
493.23 K, 35003 kPa | – | 480.29 ± 1.3
493.23 K, 40013 kPa | – | 493.44 ± 1.4
498.23 K, 5018 kPa | – | 97.97 ± 0.51
498.23 K, 9985 kPa | – | 287.72 ± 0.73
498.23 K, 14994 kPa | – | 373.12 ± 0.86
498.23 K, 19993 kPa | – | 413.38 ± 0.97
498.23 K, 24997 kPa | – | 439.84 ± 1.1
498.23 K, 29994 kPa | – | 459.71 ± 1.2
498.23 K, 35006 kPa | – | 475.76 ± 1.2
498.23 K, 40006 kPa | – | 489.2 ± 1.4
503.23 K, 5019 kPa | – | 95.03 ± 0.49
503.23 K, 10004 kPa | – | 274.87 ± 0.7
503.23 K, 14996 kPa | – | 364.53 ± 0.84
503.23 K, 20003 kPa | – | 406.9 ± 0.96
503.23 K, 24990 kPa | – | 434.25 ± 1.1
503.23 K, 29984 kPa | – | 454.72 ± 1.1
503.23 K, 34985 kPa | – | 471.2 ± 1.2
503.23 K, 39993 kPa | – | 485.02 ± 1.3
508.23 K, 5019 kPa | – | 92.41 ± 0.46
508.23 K, 9990 kPa | – | 262 ± 0.68
508.23 K, 15002 kPa | – | 356.04 ± 0.83
508.23 K, 19984 kPa | – | 400.28 ± 0.94
508.23 K, 25008 kPa | – | 428.76 ± 1.1
508.23 K, 29983 kPa | – | 449.83 ± 1.1
508.23 K, 35004 kPa | – | 466.79 ± 1.2
508.23 K, 40004 kPa | – | 480.91 ± 1.3
513.23 K, 5014 kPa | – | 89.94 ± 0.44
513.23 K, 9984 kPa | – | 250.08 ± 0.65
513.23 K, 14990 kPa | – | 347.39 ± 0.81
513.23 K, 19997 kPa | – | 393.83 ± 0.93
513.23 K, 25007 kPa | – | 423.21 ± 1
513.23 K, 29985 kPa | – | 444.89 ± 1.1
513.23 K, 35002 kPa | – | 462.3 ± 1.2
513.23 K, 40010 kPa | – | 476.76 ± 1.3
518.22 K, 5019 kPa | – | 87.78 ± 0.42
518.22 K, 14988 kPa | – | 338.79 ± 0.8
518.22 K, 25002 kPa | – | 417.6 ± 1
518.22 K, 30005 kPa | – | 440.02 ± 1.1
518.22 K, 39988 kPa | – | 472.55 ± 1.3
518.23 K, 9996 kPa | – | 239.51 ± 0.63
518.23 K, 20004 kPa | – | 386.86 ± 0.92
518.23 K, 34991 kPa | – | 457.76 ± 1.2
523.22 K, 5019 kPa | – | 85.68 ± 0.41
523.22 K, 9990 kPa | – | 229.24 ± 0.66
523.22 K, 14985 kPa | – | 330.32 ± 0.83
523.22 K, 25011 kPa | – | 412.04 ± 1
523.22 K, 29990 kPa | – | 435.04 ± 1.1
523.22 K, 34984 kPa | – | 453.26 ± 1.2
523.22 K, 40013 kPa | – | 468.46 ± 1.3
523.23 K, 20001 kPa | – | 380.33 ± 0.92
Liquid, visual observation in a variable volume cell:FP | 238.12 ± 4.8 | –

Liquid
Conditions | Critical pressure [kPa] | Critical temperature [K]
– | 4225.5 ± 11 | 435.75 ± 0.11
